Measurements from US12285392B2, “Method for modulating metabolism” (Brightseed, Inc., priority 2018, dated 2025).

Columns and labels:
[1] = pH stability assessment; assay type: physicochemical; conditions: pH 2, 7.4, 8.5 and 10, 37° C., 0.5 and 72 hours
Method: pH Stability Assessment. Individual stock solutions were prepared in DMSO at concentrations of 10 mg/mL. Four different buffer solutions were prepared to achieve solutions with a pH of 2, 7.4, 8.5 and 10. For each pH assay, 5 μL of stock solution was added to 245 μL of buffered solution to a 2 mL tube, vortexed and incubated in a 37° C. water bath. At each timepoint, 50 μL aliquots were taken, neutralized and analyzed via HPLC analysis using a DAD detector at 280 nm. The fold change of the peak area at 280 nm was analyzed for the initial and final timepoint, 0.5 and 72 hours, respectively.

[2] = tested on: insulin mRNA; experiment: Insulin mRNA levels by quantitative PCR; assay type: cell-based; conditions: FIG. 2
Method: (§1) Expression of Insulin and HNF4α. RNA was purified using a RNEASY® chromatographic separation and isolation kits (Qiagen), and converted to cDNA using the gScript™ cDNA SuperMix (Quanta Biosciences). Q-PCR was conducted with cDNA corresponding to 2 μg of RNA using an Opticon Real-Time System (MJ Research) and QPCR SuperMix (BioPioneer). See All mRNA values were normalized to 18S rRNA values and are expressed as fold changes over vehicle-treated control.

[3] = tested on: HNF4α mRNA; experiment: HNF4α mRNA levels by quantitative PCR; assay type: cell-based; conditions: FIG. 3
Method: as §1

[4] = Hepatic microsome stability assay, mouse; assay type: in vitro ADME; conditions: mouse microsomes
Method: (§2) Hepatic Microsome Assay. Hepatic microsomes stability assays were performed in accordance with known methods (Peddibhotla, et al. (2013) ACS Med. Chem. Lett. 4:846-851). Briefly, 3 μL of 25 μM compound solution in acetonitrile were incubated with 123 μL of mouse, human or rat liver microsomes (Xenotech, Kansas City, Kans.). […] The microsomal concentrations used were 1.0 mg/mL. Compounds were incubated in microsomes for 0, 5, 15, 30 and 60 minutes. The reactions were stopped by the addition of ice cold ACN and the reaction mixtures were centrifuged at 10,000 g for 10 minutes before the supernatant was removed for analysis. A 10 μL portion of the resulting extract was injected on a Thermo HPLC system equipped with PAL CTC plate sampler (96-well plate), Dionex Ultimate 3000 binary pump (flow rate at 0.600 mL/min), Dionex Ultimate 3000 thermostatted column compartment (temperature at 40° C.), Thermo Endura Mass Spectrometer (ESI source), using a Thermo Scientific Accucore C18 (2.6 μM, 2.1×50 mm) column. A gradient was run starting at 95% H2O (0.1% formic acid) and 5% ACN (0.1% formic acid) during the first 0.5 min, then under gradient condition of 5-100% ACN (0.1% formic acid) from minute 0.5 to 3.5, finishing at 95% H2O (0.1% formic acid) and 5% ACN (0.1% formic acid) over 0.5 min, with another 1 min at 95:5 to re-equilibrate.

[5] = tested on: T6PNE cells; experiment: Lipid clearance in T6PNE cells (steatosis assay); assay type: cell-based
Method: T6PNE cells were pretreated for 1 day with 0.06 mM, 0.12 mM or 0.25 mM palmitate at which time 15 μM N-trans-caffeoyltyramine or control (DMSO) was added. Cells were harvested on day 3, 6 and 8 and subjected to staining with Nile Red and Oil Red O. Results are expressed as fold change in Nile Red staining: +palmitate/10% FBS medium (no palmitate)
Lipid Clearance in HepG2 and T6PNE Cells (Steatosis Assay). The steatosis assay was carried out as described (Kiselyuk, et al. (2012) Chem. Biol. 19(7):806-818) with the exception of the drug concentration, which was 20 μM for N-trans-caffeoyltyramine with 0.25 mM palmitate in HepG2 cell lines, and 10 μM of either N-trans-caffeoyltyramine, N-trans-caffeoyltyramine, or pcoumaroyltyramine, with 0.25 mM palmitate in T6PNE cell lines. Steatosis was assessed using the Oil Red 0 Method for Fats kits (Poly Scientific; Warrington, PA), per manufacturer's guidelines. Briefly, frozen tissue slides or fixed cells were incubated in neat propylene glycol for 2 minutes and Oil Red 0 solution for 15 hours for slides or 1 hour for fixed cells, differentiated in 85% propylene glycol solution for 1 minute, washed twice with distilled water and stained in Hematoxylin of 10 seconds. Slides were mounted with glycerin jelly mounting medium.

[6] = Hepatic microsome stability assay, human; assay type: in vitro ADME
Method: as §2

[7] = tested on: estrogenic activity; experiment: Counter-screen for estrogenic activity (E47MER luciferase reporter in HeLa cells); assay type: cell-based, human; conditions: FIG. 5
Method: Counter-Screen for Estrogenic Activity. Estrogenic activity was monitored by co-transfection of a reporter plasmid containing a multimerized E-box 5′ of a minimal promoter fused to the Firefly luciferase gene (4RTK-luc) with wild-type E47 or E47MER (Kiselyuk, et al. (2010) J. Biomol. Screen 15(6):663-70). HeLa cells were transfected using polyethylenimine, 0.2 μg 4RTK-Luc plasmid and either 0.3 μg of human E47, E47MER or pMSCVhph vector in 50 μl of serum-free Dulbecco's modification of Eagle medium per well. Transfections included Renilla luciferase (pRL-TK) plasmid as a control for transfection efficacy. Transfection conditions were as described in the PPRE-Luc reporter assay of Kiselyuk, et al. ((2010) J. Biomol. Screen 15(6):663-70). Sixteen hours after transfection, culture media were changed and maintained for 48 hours with tamoxifen and/or compound or vehicle (DMSO). Cells were then lysed and assayed for luciferase activity using the Promega DUAL-LUCIFERASE® reporter assay kit (Promega Corp., Madison, WI), and luminescence was measured using the Veritas™ Microplate Luminometer (Turner Biosystems, Sunnyvale, CA). Data were normalized to Renilla luciferase (pRL-TK) and expressed as fold-change over vehicle alone.

O=C(/C=C/c1ccc(O)c(O)c1)NCCc1ccc(O)cc1 [N-trans-caffeoyltyramine]
pH Stability [1]: Acid Stable | Insulin gene expression [2]: upregulated | HNF4α gene expression [3]: upregulated | % Remaining ([4]; 1 μM): 0.4% | % Remaining ([4]; 10 μM): 0.3% | Fat accumulation ([5]; 10 μM, 0.25 mM palmitate): inhibition of fat accumulation | Lipid accumulation when palmitate was added prior to compound ([5]; FIG. 6, 15 μM): reduced lipid accumulation | Apparent major biotransformation pathway ([6]; human microsomes): oxidation of the left-hand aryl ring | % Remaining ([6]; human microsomes, 1 μM): 55.3% | % Remaining ([6]; human microsomes, 10 μM): 85.4% | Stability in hepatic microsomes ([6]; human, rat and mouse hepatic microsomes): stable | Estrogenic activity [7]: did not exhibit estrogenic activity
